Test results taken from patent publication US20100135905A1, “ASSESSMENT OF CANCER SUSCEPTIBILITY TO MOLECULAR TARGETED THERAPY BY USE OF RECOMBINANT PEPTIDES” (priority 2004, published 2010).

How the values were obtained:
LLC tumors [1] = experiment: In vivo panning of T7 phage peptide library: phage recovered from irradiated LLC tumors; set-up: species or system mice
Protocol: (§1) GL261 murine glioma cells and Lewis lung carcinoma (LLC) cells were implanted into the hind limb of C57BL/6 mice (see Hallahan et al., 1995b; Hallahan et al., 1998; Hallahan & Virudachalam, 1999).
(§2) For in vivo panning, tumors were irradiated with 3 Gy and approximately 10^10 phage (prepared as described in Example 1) were administered by tail vein injection into each of the tumor bearing mice at 4 hours following irradiation. Tumors were recovered at one hour following injection and amplified in BL21 bacteria. Amplified phage were pooled and re-administered to a tumor-bearing mouse following tumor irradiation. The phage pool was sequentially administered to a total of 6 animals. As a control, wild type phage lacking synthetic peptide inserts were identically administered to a second experimental group of animals.
(§3) To determine the titer of phage binding in a tumor or in normal tissue, recovered phage were amplified in BL21 bacteria. Bacteria were plated and the number of plaques present was counted. To determine the total phage output per organ, the number of plaque forming units (PFU) on each plate was divided by the volume of phage plated and the weight of each organ. Normal variation was observed as a 2-fold difference in PFU. In the present Example, background binding within tumor blood vessels was approximately 10^4 phage. Phage that bound to the vasculature within irradiated tumors show enrichment in the tumor relative to other organs and enrichment in the irradiated tumor relative to the control phage without DNA insert.
(§4) Following six rounds of in vivo panning, fifty recombinant phage peptides that bound within irradiated tumors were randomly selected for further analysis. The nucleic acid sequence encoding recombinant phage was amplified by PCR using primers set forth as SEQ ID NOs: 20-21 (available from Novagen Brand, a unit of EMD Biosciences, Inc., Madison, Wis.). An individual phage suspension was used as template. Amplified peptides were sequenced using an ABI PRISM® 377 sequencer (Applied Biosystems of Foster City, Calif., United States of America).

GL261 tumors = experiment: In vivo panning of T7 phage peptide library: phage recovered from irradiated GL261 tumors; set-up: species or system mice; details: Experiment A, 3 Gy; for Phage Recovered from GL261 tumors: number of sequenced phage after six rounds; for Phage Recovered from GL261 tumors (Frequency): six rounds
Protocol: as §1, §2, §3, §4

[2] = tested on: B16F0 melanoma, lung carcinoma and glioma tumor models; experiment: Binding of phage-encoded peptides in additional tumor models; assay type: in vivo; details: phage encoding the peptide
From the text: The binding properties of phage encoding HVGGSSV (SEQ ID NO: 1), […] (SEQ ID NO: 2), […] (SEQ ID NO: 3), and SVGSRV (SEQ ID NO: 4) were additionally characterized in a B16F0 melanoma model.

responding tumor = experiment: Near infrared imaging of Cy7-labeled phage peptide in tumor-bearing mice; assay type: in vivo, mouse
Protocol: To determine the feasibility of imaging phage peptides binding within tumors, a Xenogen imaging system (Xenogen Corp., Alameda, Calif., United States of America) and near infrared imaging of Cy7-labeled recombinant peptides selected from phage libraries was employed. In order to examine the binding of recombinant phage peptides to responding tumors, preliminary experiments were performed to test the background binding of negative control phage in tumor-bearing animals. The […] was labeled with Cy7 and injected by tail vein into a mouse bearing tumors in both hind limbs. […] The time course of labeled negative control phage circulating throughout the animal over 6 hours was determined. At 1 hour post-injection via the tail vein, Cy7-labeled phage was distributed throughout the entire animal. At 6 hours after tail vein injection, clearance through the kidneys was observed.

D54 and LLC tumors = experiment: Imaging of Alexfluor 750-conjugated peptide in responding and non-responding tumors; assay type: in vivo, nude mice
Protocol: D54 and LLC tumors were implanted into both hind limbs of nude mice as described in Example 2. Tumors were grown over the course of seven to 10 days.
At 24 hours following drug administration, mice were injected with Alexfluor 750-conjugated HVGGSSV (SEQ ID NO: 1) peptide through a jugular catheter.

treated tumors = experiment: Kinetics of Cy 7 conjugated peptide binding to treated tumors, daily imaging; assay type: in vivo, mouse; details: Cy 7 conjugate
Protocol: To study the kinetics of peptide binding to treated tumors, animals were imaged daily following administration of Cy 7 conjugated HVGGSSV (SEQ ID NO: 1) peptide. […] At 40 hours, the peptide was excreted by the kidneys. Tumors were located in the left hind limb.

[3] = tested on: tumor vascular endothelium; experiment: Histochemistry of tumor sections after biotinylated peptide; assay type: in vivo; details: 24 hours after administration
Protocol: To determine whether peptide binds to endothelium or blood components, tumors were sectioned at 24 hours following administration of biotinylated HVGGSSV (SEQ ID NO: 1) peptide. Tumor sections were then stained with strepavidin conjugates for histochemistry.

α2bβ3 receptor = target: T1, α2bβ3 receptor (Mus musculus, UniProt O54890+Q9QUM0); experiment: Phage binding in irradiated tumors with blocking antibody, plaque formation; assay type: in vivo; details: phage encoding the peptide on the capsid protein
T1 construct: from tissue; host or cells: irradiated tumours (tumour vasculature / blood components) in living mice
T1 sequence (Q9QUM0 32-1033): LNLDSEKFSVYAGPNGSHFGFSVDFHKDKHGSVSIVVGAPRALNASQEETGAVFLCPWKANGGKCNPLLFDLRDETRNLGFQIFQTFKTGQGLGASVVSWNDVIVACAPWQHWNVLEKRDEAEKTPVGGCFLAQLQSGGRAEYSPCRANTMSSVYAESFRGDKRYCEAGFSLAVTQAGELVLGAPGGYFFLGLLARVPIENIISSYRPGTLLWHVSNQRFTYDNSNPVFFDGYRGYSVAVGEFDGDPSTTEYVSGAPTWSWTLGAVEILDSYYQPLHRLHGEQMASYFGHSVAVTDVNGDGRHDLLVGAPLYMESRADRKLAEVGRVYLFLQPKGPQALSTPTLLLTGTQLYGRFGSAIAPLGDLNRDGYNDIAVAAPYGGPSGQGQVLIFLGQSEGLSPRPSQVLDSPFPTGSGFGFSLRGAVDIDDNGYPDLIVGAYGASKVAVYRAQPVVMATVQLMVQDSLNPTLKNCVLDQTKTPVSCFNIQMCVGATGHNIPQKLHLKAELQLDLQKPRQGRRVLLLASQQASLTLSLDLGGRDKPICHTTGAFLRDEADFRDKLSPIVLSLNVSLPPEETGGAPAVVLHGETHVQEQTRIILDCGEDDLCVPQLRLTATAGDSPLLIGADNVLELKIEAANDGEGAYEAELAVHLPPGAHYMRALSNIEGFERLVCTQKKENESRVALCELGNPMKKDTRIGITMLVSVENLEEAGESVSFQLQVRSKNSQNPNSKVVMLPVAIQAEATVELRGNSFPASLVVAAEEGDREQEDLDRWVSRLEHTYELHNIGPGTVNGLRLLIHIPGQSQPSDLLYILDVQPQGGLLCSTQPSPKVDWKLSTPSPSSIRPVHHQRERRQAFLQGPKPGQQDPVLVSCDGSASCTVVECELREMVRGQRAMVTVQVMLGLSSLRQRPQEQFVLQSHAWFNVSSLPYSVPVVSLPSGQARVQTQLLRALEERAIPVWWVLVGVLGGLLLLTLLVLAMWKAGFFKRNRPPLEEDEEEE
T1 sequence (O54890 26-787): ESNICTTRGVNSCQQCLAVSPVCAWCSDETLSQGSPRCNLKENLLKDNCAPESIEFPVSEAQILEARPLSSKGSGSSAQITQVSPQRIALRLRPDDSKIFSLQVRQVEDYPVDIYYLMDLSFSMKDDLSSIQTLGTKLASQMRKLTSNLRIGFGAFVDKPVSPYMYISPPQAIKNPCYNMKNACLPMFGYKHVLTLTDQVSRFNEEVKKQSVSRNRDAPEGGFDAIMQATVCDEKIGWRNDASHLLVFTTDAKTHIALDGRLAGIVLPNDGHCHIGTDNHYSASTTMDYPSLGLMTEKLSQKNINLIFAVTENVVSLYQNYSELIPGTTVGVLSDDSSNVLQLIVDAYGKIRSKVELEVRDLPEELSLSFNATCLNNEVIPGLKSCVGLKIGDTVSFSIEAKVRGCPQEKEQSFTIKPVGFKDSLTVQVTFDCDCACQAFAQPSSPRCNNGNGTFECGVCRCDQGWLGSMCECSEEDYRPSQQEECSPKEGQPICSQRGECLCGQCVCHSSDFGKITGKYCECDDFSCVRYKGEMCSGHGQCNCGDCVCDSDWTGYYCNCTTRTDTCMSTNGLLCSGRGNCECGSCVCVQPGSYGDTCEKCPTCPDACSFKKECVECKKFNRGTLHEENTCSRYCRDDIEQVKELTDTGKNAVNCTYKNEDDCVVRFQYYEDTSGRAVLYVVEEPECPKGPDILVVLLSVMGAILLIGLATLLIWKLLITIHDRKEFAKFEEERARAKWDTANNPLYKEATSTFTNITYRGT
Protocol: An anti-α2bβ3 monoclonal antibody was administered by tail vein to determine whether this receptor is required for recombinant phage binding in irradiated tumors. Phage encoding […] (SEQ ID NO: 2) on the capsid protein were injected immediately after blocking antibody or control antibody. Phage were recovered from the tumor and controls organs and quantified by plaque formation. Radiation induced a 4-fold increase in phage binding in tumor. […] Thus, the tumor binding activity of targeting peptide […] (SEQ ID NO: 2) is dependent on its interaction with the α2bβ3 receptor.

LLC tumors [4] = experiment: 131I-labeled peptide binding in hind limb LLC tumors, well counts; assay type: in vivo, mice
Protocol: Recombinant peptide and ligand binding to the α2bβ3 integrin is dose dependent, with a threshold dose of 6 Gy and maximal binding at 10 Gy. This is the dose range for induction of apoptosis within tumor endothelium (Garcia-Barros & Kolesnick, 2003). […] To determine whether recombinant peptides bind within tumors following this combined therapy, the recombinant peptide […] (SEQ ID NO: 2) was employed. […] Tumors were resected and counts per minute (CPM) were measured by well counts.

[5] = Experiment A, number of sequenced phage after six rounds, 3 Gy

HVGGSSV (Peptide that binds to LLC and/or GL261 tumors) [peptide isolated by in vivo panning of a phage library]
Phage Recovered from LLC tumors (LLC tumors [1]; [5]): 7
Phage Recovered from LLC tumors (Frequency) (LLC tumors [1]; Experiment A, six rounds, 3 Gy): (28%)
Phage Recovered from GL261 tumors (GL261 tumors): 12
Phage Recovered from GL261 tumors (Frequency) (GL261 tumors): (48%)
Tumor models within which the phage-encoded peptide bound [2]: bound within the melanoma, lung carcinoma, and glioma tumor models
Binding of Cy7-labeled phage peptide in treated tumor (responding tumor; SU11248 and 3 Gy to right hind limb tumor): bound within the responding tumor
Binding of Cy7-labeled phage peptide in tumors (responding tumor; mouse treated with SU11248 40 mg/kg, one hind limb tumor 3 Gy 24 hours prior to imaging): observed in the responding tumor but not an non-responding tumor
Phage binding in negative control tumor (responding tumor; no SU11248 or radiation, 24 hours after tail vein injection): minimal phage binding
Labeled peptide binding in tumor (D54 and LLC tumors; Alexfluor 750 conjugate, tumor treated with SU11248 and radiation, 24 hours after drug): Intense peptide binding
Uptake in tumors treated with SU11248 alone compared to untreated tumors (D54 and LLC tumors; responding versus non-responding tumors): differentially bound to tumors that responded to SU11248 therapy
Labeled peptide binding in tumor (D54 and LLC tumors; tumors not responding to therapy, SU11248 alone): no increase in peptide binding
Time at which peptide was excreted by the kidneys (treated tumors): 40 h
Time over which peptide circulated throughout the mouse (treated tumors): 28 h
Time over which peptide remained bound to the tumor (treated tumors): 162 h
Binding within the intravascular blood components [3]: minimal or no binding
Site of peptide binding in tumor sections ([3]; streptavidin histochemistry): bound primarily to tumor vascular endothelium

SLRGDGSSV (Peptide that binds to LLC and/or GL261 tumors) [peptide isolated by in vivo panning]
Phage Recovered from LLC tumors (LLC tumors [1]; [5]): 7
Phage Recovered from LLC tumors (Frequency) (LLC tumors [1]; Experiment A, six rounds, 3 Gy): (28%)
Phage Recovered from LLC tumors (Frequency) (LLC tumors [1]; Experiment B): (14%)
Phage Recovered from LLC tumors (LLC tumors [1]; Experiment B, number of sequenced phage): 2
Phage Recovered from GL261 tumors (GL261 tumors): 2
Phage Recovered from GL261 tumors (Frequency) (GL261 tumors): (8%)
Tumor models within which the phage-encoded peptide bound [2]: bound within the melanoma, lung carcinoma, and glioma tumor models
Radiation-induced increase in phage binding in tumor (α2bβ3 receptor): 4 fold
Radiolabeled peptide bound in tumors (LLC tumors [4]; tumors treated with 2 Gy alone): 10%
Radiolabeled peptide bound in tumors (LLC tumors [4]; tumors treated with 10 Gy): 89%
Radiolabeled peptide bound in tumors (LLC tumors [4]; tumors treated with SU11248 alone): 9%
Radiolabeled peptide bound in tumors (LLC tumors [4]; tumors treated with SU11248 and 2 Gy): 91%
Radiolabeled peptide bound in tumors (LLC tumors [4]; untreated control tumors (tumors about 8% of body weight)): 8%
